Laboratory results taken from US9328112B2, “Tetracyclic CDK9 kinase inhibitors” (AbbVie Inc., priority 2014, dated 2016).

Legend:
CDK9/Cyclin T1 = CDK9/Cyclin T1 (Homo sapiens (Human), UniProt P50750); experiment: CDK9 enzyme assay (LANCE ULight TR-FRET kinase assay); format: biochemical; conditions: 1000 μM ATP, 100 nM ULight MBP, kinase reaction 1 hour
In short: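 Human CDK9/Cyclin T1 phosphorylating 100 nM ULight-MBP with 1000 μM ATP in HEPES/MgCl2 buffer, 1 h reaction. Stopped with 20 mM EDTA plus 0.5 nM Eu anti-phospho-MBP antibody, incubated 1 h, read by TR-FRET (ex 320 nm, em 615/665 nm).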

H929 cells = experiment: Cell viability assay (Cell TiterGlo); format: cell-based; conditions: Cell TiterGlo luminescence
Procedure: The cell viability assay was performed using H929 cells. Cells were seeded in 96-well plates at 10,000 cells/well and, after overnight incubation, treated with compounds in a dose response of 3-fold dilutions from 10 μM to 0.005 μM ([…], 0.1% final DMSO concentration). After 24 hours at 37° C., cell viability was measured using Cell TiterGlo reagent (Promega) with a luminescence reader.

[1] = Homo sapiens, NCI-H929, 24 hours at 37° C.

Chain of CDK9/Cyclin T1 (P50750 whole entry): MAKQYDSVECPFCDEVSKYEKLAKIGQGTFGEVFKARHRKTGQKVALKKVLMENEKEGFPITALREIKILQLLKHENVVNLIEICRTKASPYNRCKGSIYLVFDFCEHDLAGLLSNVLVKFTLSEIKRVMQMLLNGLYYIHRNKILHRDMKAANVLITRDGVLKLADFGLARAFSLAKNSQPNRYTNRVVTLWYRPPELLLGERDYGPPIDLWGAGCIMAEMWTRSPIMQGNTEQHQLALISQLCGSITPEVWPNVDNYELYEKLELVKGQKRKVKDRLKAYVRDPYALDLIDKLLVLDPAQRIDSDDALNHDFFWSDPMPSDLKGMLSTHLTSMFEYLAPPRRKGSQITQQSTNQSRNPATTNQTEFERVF
Chain of CDK9/Cyclin T1 (O60563 whole entry partner): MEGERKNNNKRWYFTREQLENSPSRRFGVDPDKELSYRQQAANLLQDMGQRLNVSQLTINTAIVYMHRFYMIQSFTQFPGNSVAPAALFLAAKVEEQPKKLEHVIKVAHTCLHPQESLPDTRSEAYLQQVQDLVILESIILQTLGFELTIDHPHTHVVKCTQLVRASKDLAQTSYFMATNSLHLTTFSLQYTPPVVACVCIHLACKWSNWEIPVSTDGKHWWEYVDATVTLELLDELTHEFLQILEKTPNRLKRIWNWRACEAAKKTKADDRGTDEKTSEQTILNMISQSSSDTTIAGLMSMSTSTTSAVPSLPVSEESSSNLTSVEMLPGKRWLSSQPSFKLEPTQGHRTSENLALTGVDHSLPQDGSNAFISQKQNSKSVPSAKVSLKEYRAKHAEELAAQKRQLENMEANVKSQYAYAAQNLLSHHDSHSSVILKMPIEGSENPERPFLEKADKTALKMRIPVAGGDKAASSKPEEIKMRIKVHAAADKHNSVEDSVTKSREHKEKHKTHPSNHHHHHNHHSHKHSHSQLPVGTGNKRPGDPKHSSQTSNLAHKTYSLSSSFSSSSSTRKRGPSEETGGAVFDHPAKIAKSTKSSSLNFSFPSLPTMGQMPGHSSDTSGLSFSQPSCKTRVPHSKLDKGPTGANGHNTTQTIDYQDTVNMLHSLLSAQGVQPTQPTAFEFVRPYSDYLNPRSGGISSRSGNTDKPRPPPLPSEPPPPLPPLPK

Compound | IC50 (CDK9/Cyclin T1) [nM] | IC50 (H929 cells; [1]) [nM] | IC50 (H929 cells; 24 hours at 37° C.) [nM]
CN1Cc2c(C3=CC4CCCC(C3)N4CC(=O)O)[nH]c3nccc(c23)-c2cc(F)ccc21 (stereo not shown) [Example 108, [3-(10-fluoro-7-methyl-6,7-dihydro-4H-3,4,7-triazadibenzo[cd,f]azulen-5-yl)-9-azabicyclo[3.3.1]non-2-en-9-yl]acetic acid] | 110 | 1200 | –
CN(C)C(=O)CN1CC=C(c2[nH]c3nccc4c3c2CCN(C)c2ccc(F)cc2-4)CC1 [Example 129, 2-[4-(8-fluoro-5-methyl-1,3,4,5-tetrahydro-1,5,12-triazabenzo[4,5]cycloocta[1,2,3-cd]inden-2-yl)-3,6-dihydropyridin-1(2H)-yl]-N,N-dimethylacetamide] | 67 | – | 130
CN1Cc2c(C3=CC4CCCC(C3)N4CC(=O)N3CCC[C@H]3CO)[nH]c3nccc(c23)-c2cc(F)ccc21 (stereo partly drawn) [Example 104, 2-[3-(10-fluoro-7-methyl-6,7-dihydro-4H-3,4,7-triazadibenzo[cd,f]azulen-5-yl)-9-azabicyclo[3.3.1]non-2-en-9-yl]-1-[(2S)-2-(hydroxymethyl)pyrrolidin-1-yl]ethanone] | 57 | 65 | –
CN(CC(O)CO)C(=O)CN1C2C=C(c3[nH]c4nccc5c4c3CN(C)c3ccc(F)cc3-5)CC1CCC2 (stereo not shown) [Example 107, N-(2,3-dihydroxypropyl)-2-[3-(10-fluoro-7-methyl-6,7-dihydro-4H-3,4,7-triazadibenzo[cd,f]azulen-5-yl)-9-azabicyclo[3.3.1]non-2-en-9-yl]-N-methylacetamide] | 110 | 110 | –
CN1Cc2c(C3=CC4CCCC(C3)N4CC(=O)N(C)C3CC(O)C3)[nH]c3nccc(c23)-c2cc(F)ccc21 (stereo not shown) [Example 106, 2-[3-(10-fluoro-7-methyl-6,7-dihydro-4H-3,4,7-triazadibenzo[cd,f]azulen-5-yl)-9-azabicyclo[3.3.1]non-2-en-9-yl]-N-(3-hydroxycyclobutyl)-N-methylacetamide] | 66 | 130 | –
CNC(=O)N1CC2C=C(c3[nH]c4nccc5c4c3CN(C)c3ccc(F)cc3-5)CC2C1 (stereo not shown) [Example 76, 5-(10-fluoro-7-methyl-6,7-dihydro-4H-3,4,7-triazadibenzo[cd,f]azulen-5-yl)-N-methyl-3,3a,4,6a-tetrahydrocyclopenta[c]pyrrole-2(1H)-carboxamide] | 41 | 22 | –
CN1Cc2c(C3CCN(CC(=O)N4CCC[C@H]4CO)CC3)[nH]c3nccc(c23)-c2cc(F)ccc21 [Example 26, 2-[4-(10-fluoro-7-methyl-6,7-dihydro-4H-3,4,7-triazadibenzo[cd, f]azulen-5-yl)piperidin-1-yl]-1-[(2S)-2-(hydroxymethyl)pyrrolidin-1-yl]ethanone] | 93 | 150 | –
CN1Cc2c(-c3cnc(N)nc3)[nH]c3nccc(c23)-c2cc(F)ccc21 [Example 46, 5-(10-fluoro-7-methyl-6,7-dihydro-4H-3,4,7-triazadibenzo[cd,f]azulen-5-yl)pyrimidin-2-amine] | 3300 | > 10000 | –
CN(CCO)C(=O)CN1C2C=C(c3[nH]c4nccc5c4c3CN(C)c3ccc(F)cc3-5)CC1CCC2 (stereo not shown) [Example 103, 2-[3-(10-fluoro-7-methyl-6,7-dihydro-4H-3,4,7-triazadibenzo[cd,f]azulen-5-yl)-9-azabicyclo[3.3.1]non-2-en-9-yl]-N-(2-hydroxyethyl)-N-methylacetamide] | 86 | 51 | –
CN1Cc2c(C3=CCC(N[C@@H](Cc4ccccc4)C(=O)O)CC3)[nH]c3nccc(c23)-c2cc(F)ccc21 (stereo partly drawn) [Example 35, N-[4-(10-fluoro-7-methyl-6,7-dihydro-4H-3,4,7-triazadibenzo[cd,f]azulen-5-yl)cyclohex-3-en-1-yl]-L-phenylalanine] | 61 | 91 | –
CCC1c2c(C3=CCN(S(C)(=O)=O)CC3)[nH]c3nccc(c23)-c2cc(F)ccc2N1C (stereo not shown) [Example 11, 6-ethyl-10-fluoro-7-methyl-5-[1-(methylsulfonyl)-1,2,3,6-tetrahydropyridin-4-yl]-6,7-dihydro-4H-3,4,7-triazadibenzo[cd,f]azulene] | 120 | 32 | –
CN(C)C(=O)CN1CC2C=C(c3[nH]c4nccc5c4c3CN(C)c3ccc(F)cc3-5)CC2C1 (stereo not shown) [Example 77, 2-[5-(10-fluoro-7-methyl-6,7-dihydro-4H-3,4,7-triazadibenzo[cd,f]azulen-5-yl)-3,3a,4,6a-tetrahydrocyclopenta[c]pyrrol-2(1H)-yl]-N,N-dimethylacetamide] | 46 | 78 | –
CN1Cc2c(C3=CCN(C4CCC(=CC#N)CC4)CC3)[nH]c3nccc(c23)-c2cc(F)ccc21 (stereo not shown) [Example 173, {4-[4-(10-fluoro-7-methyl-6,7-dihydro-4H-3,4,7-triazadibenzo[cd,f]azulen-5-yl)-3,6-dihydropyridin-1(2H)-yl]cyclohexylidene}acetonitrile] | 45 | 68 | –
CN1c2ccc(F)cc2-c2ccnc3[nH]c(C4=CCNCC4)c(c23)C1C(=O)O (stereo not shown) [Example 33, 10-fluoro-7-methyl-5-(1,2,3,6-tetrahydropyridin-4-yl)-6,7-dihydro-4H-3,4,7-triazadibenzo[cd,f]azulene-6-carboxylic acid] | 540 | 150 | –
CN1Cc2c(-c3ccc(C(=O)O)cc3)[nH]c3nccc(c23)-c2cc(F)ccc21 [Example 47, 4-(10-fluoro-7-methyl-6,7-dihydro-4H-3,4,7-triazadibenzo[cd,f]azulen-5-yl)benzoic acid] | 150 | 9800 | –
CS(=O)(=O)N1CC=C(c2[nH]c3nccc4c3c2CNc2ccc(F)cc2-4)CC1 [Example 5, 10-fluoro-5-[1-(methylsulfonyl)-1,2,3,6-tetrahydropyridin-4-yl]-6,7-dihydro-4H-3,4,7-triazadibenzo[cd,f]azulene] | 62 | 730 | –
CN1Cc2c(C3=CCC(N[C@H](C(=O)O)C(C)(C)C)CC3)[nH]c3nccc(c23)-c2cc(F)ccc21 (stereo partly drawn) [Example 36, N-[4-(10-fluoro-7-methyl-6,7-dihydro-4H-3,4,7-triazadibenzo[cd,f]azulen-5-yl)cyclohex-3-en-1-yl]-3-methyl-L-valine] | 64 | 25 | –

More lines, main results first:

IC50 (CDK9/Cyclin T1) [nM] | IC50 (H929 cells; [1]) [nM] | Compound | IC50 (H929 cells; 24 hours at 37° C.) [nM]
420 | 1200 | CN1Cc2c(C3=CCNCC3(C)C)[nH]c3nccc(c23)-c2cc(F)ccc21 [Example 92, 5-(3,3-dimethyl-1,2,3,6-tetrahydropyridin-4-yl)-10-fluoro-7-methyl-6,7-dihydro-4H-3,4,7-triazadibenzo[cd,f]azulene] | –
85 | 94 | CN1Cc2c(C3=CCN(S(C)(=O)=O)CC3)[nH]c3nccc(c23)-c2ccccc21 [Example 160, 7-methyl-5-[1-(methylsulfonyl)-1,2,3,6-tetrahydropyridin-4-yl]-6,7-dihydro-4H-3,4,7-triazadibenzo[cd,f]azulene] | –
75 | 8 | CN1Cc2c(C3=CCN([C@H]4CC[C@H](C(=O)O)CC4)CC3)[nH]c3ncc(F)c(c23)-c2cc(F)ccc21 [Example 166, trans-4-[4-(1,10-difluoro-7-methyl-6,7-dihydro-4H-3,4,7-triazadibenzo[cd,f]azulen-5-yl)-3,6-dihydropyridin-1(2H)-yl]cyclohexanecarboxylic acid] | –
100 | 91 | CN1Cc2c(C3=CC4CN(CC(=O)N(C)C5CC(O)C5)CC4C3)[nH]c3nccc(c23)-c2cc(F)ccc21 (stereo not shown) [Example 94, 2-[5-(10-fluoro-7-methyl-6,7-dihydro-4H-3,4,7-triazadibenzo[cd,f]azulen-5-yl)-3,3a,4,6a-tetrahydrocyclopenta[c]pyrrol-2 (1H)-yl]-N-(3-hydroxycyclobutyl)-N-methylacetamide] | –
160 | 1100 | CN1Cc2c(C3=CCCN(CC(=O)N4CC(O)C4)C3)[nH]c3nccc(c23)-c2cc(F)ccc21 [Example 121, 2-[5-(10-fluoro-7-methyl-6,7-dihydro-4H-3,4,7-triazadibenzo[cd,f]azulen-5-yl)-3,6-dihydropyridin-1(2H)-yl]-1-(3-hydroxyazetidin-1-yl)ethanone] | –
150 | 150 | CN(C)C(=O)CN1CCC=C(c2[nH]c3nccc4c3c2CN(C)c2ccc(F)cc2-4)CC1 [Example 88, 2-[4-(10-fluoro-7-methyl-6,7-dihydro-4H-3,4,7-triazadibenzo[cd,f]azulen-5-yl)-2,3,6,7-tetrahydro-1H-azepin-1-yl]-N,N-dimethylacetamide] | –
69 | 180 | CN1Cc2c(C3=CCN(S(C)(=O)=O)CC3)[nH]c3nccc(c23)-c2cccnc21 [Example 138, 7-methyl-5-[1-(methylsulfonyl)-1,2,3,6-tetrahydropyridin-4-yl]-6,7-dihydro-4H-3,4,7,8-tetraazadibenzo[cd,f]azulene] | –
45 | 6 | CN1Cc2c(C3=CCN(CC(=O)N4CCC[C@H]4CO)CC3)[nH]c3nccc(c23)-c2cc(F)c(F)cc21 [Example 147, 2-[4-(9,10-difluoro-7-methyl-6,7-dihydro-4H-3,4,7-triazadibenzo[cd,f]azulen-5-yl)-3,6-dihydropyridin-1(2H)-yl]-1-[(2S)-2-(hydroxymethyl)pyrrolidin-1-yl]ethanone] | –
53 | 25 | CN1Cc2c(C3=CCN(CC(=O)N(C)C4CC(O)C4)CC3)[nH]c3nccc(c23)-c2cc(F)c(F)cc21 (stereo not shown) [Example 148, 2-[4-(9,10-difluoro-7-methyl-6,7-dihydro-4H-3,4,7-triazadibenzo[cd,f]azulen-5-yl)-3,6-dihydropyridin-1(2H)-yl]-N-(3-hydroxycyclobutyl)-N-methylacetamide] | –
